# Assay results taken from US20160089377A1, “THERAPEUTIC TARGETING OF THE MTOR PATHWAY IN NEURODEVELOPMENTAL AND NEUROPSYCHIATRIC DISEASE” (THE TRUSTEES OF COLUMBIA UNIVERISTY IN THE CITY OF NEW YORK, priority 2013, published 2016).
# Entries after “also recorded” stand apart in the source; their conditions may differ.
# Key:
# [1] = system: dendritic spines in the frontal association cortex; assay: In vivo transcranial two-photon microscopy of dendritic spine formation and elimination; design: species or system mice
# Excerpt: In order to assess whether we could reverse or prevent the abnormalities in spine dynamics in Caspr2 mutants, we treated Caspr2^+/−/Thy1-YFP/H, Caspr2^−/−/Thy-1-YFP/H mice, and WT littermates also positive for YFP/H from P12-P32 with either WYE125132 or with vehicle. One-month old (P30±1) male mice were used in the experiments. Spine formation and elimination were examined by imaging the mouse cortex through a thinned-skull window as described previously. Briefly, 1-mo old male mice expressing YFP were anaesthetized with ketamine and xylazine (intraperitoneal; 20 mg/ml and 3 mg/ml, respectively, in saline; 6 μl per gram of body weight). Thinned-skull windows were made in head-fixed mice with high-speed microdrills. Skull thickness was reduced to about 20 μm. A twophoton microscope tuned to 920 nm (×60 water immersion lens; numerical aperture,1.1) was used to acquire images. For re-imaging of the same region, thinned regions were identified on the basis of the maps of the brain vasculature. Microsurgical blades were used to re-thin the region of interest until a clear image could be obtained. The area of the imaging region was 200 μm×200 μm in the frontal association cortex. The centers of the imaging regions were as follows: +2.8 mm bregma, +1.0 mm midline.
# WYE125132 (Chemscene) was administered by a daily p.o. gavaging in a volume of 10 ml/kg. For all behavioral experiments, dams were treated from PO to P12 after which individual pups were gavaged on a daily basis going forward. Mice also received drug treatment on the days of testing, at least 1 hour prior the experiment. For the two-photon and cell size quantitation studies, mice were gavaged from P12 to p35, after they were
# One-month-old (P30±1) male mice were used in the experiments. Spine formation and elimination were examined by imaging the mouse frontal association cortex through a thinned-skull window as described previously (Lai, 2012).
# To examine whether we could reverse the abnormalities in dendritic spine dynamics in the frontal association cortex, we gavaged the mice daily from P12 to P32 with WYE125132 versus vehicle.
# [2] = system: layer V pyramidal neurons; assay: Spike-timing-dependent LTP, whole-cell recordings from slices of treated adult mice; type: in vivo
# Procedure: (§1) All mice were treated with either WYE125132 or vehicle for a period of 2 weeks after which the animals were euthanized and thalamocortical slices were prepared. Briefly, animals were anesthetized, decapitated and the brain quickly placed into ice-cold dissection buffer containing (in mM): 75 sucrose, 87 NaCl, 2.5 KCl, 1.25 NaH2PO4, 0.5 CaCl2, 7 MgCl2 6H2O, 25 NaHCO3, 10 dextrose, bubbled with 95% O2/5% CO2 (pH 7.4). Slices (400 μm) were prepared with a vibratome (Leica, VT1200S), placed in 33-35° C. for artificial cerebrospinal fluid (ACSF, in mM: 124 NaCl, 2.5 KCl, 1.25 NaH2PO4, 2.5 CaCl2, 1.5 MgSO4 7H2O, 26 NaHCO3, and 10 dextrose) for <30 min; then returned to room temperature >1 hr before use. Slices were then transferred to the recording chamber and perfused (2.0-2.5 ml min-1) with oxygenated ACSF at 33-35° C. and given 30 min to stabilize. Somatic whole-cell recordings were made from layer 5 pyramidal cells in voltage and current clamp mode with a Multiclamp 700B amplifier (Molecular Devices). Selection was based on morphology and electrophysiological criteria. Patch pipettes (3-8MΩ) contained a current clamp solution. Data were filtered at 2 kHz, digitized at 10 kHz and analyzed with Clampfit. Cells were excluded from analysis if Ri or Rs changed by >25% over the course of the recording. Excitatory post-synaptic currents or potentials (EPSCs/Ps) were evoked by extracellular stimulation (0.01-1 ms, 1-10V) with a 4×1 array of electrodes placed in layer 4, and straddling the patched layer 5 neuron. Across mice we compared spontaneous and evoked inhibitory responses by clamping the membrane potential of the cell to sub-threshold levels. Furthermore, we compared inhibition generated by each stimulation electrode, to the corresponding amount of excitation when the cell was held at −80 mV. Lastly, we tested Spike-Timing Dependent Plasticity (STDP).
# (§2) euthanized. For the electrophysiology and western blot rescue experiments, adult mice were gavaged for 14 consecutive days after which they were euthanized.
# Whole cell recordings were made from layer V pyramidal cells of the temporal cortex. Focal extracellular stimulation was applied and excitatory and inhibitory currents were measured across various stimulation intensities to assess E:I balance. For plasticity experiments, extracellular stimulation was paired with postsynaptic action potentials (elicited by current injection via the recording electrode) less than 10 ms after the onset of the EPSP 60 times at 0.1 hz. Baseline strength was compared to synaptic strength 6-15 mins after spike pairing.
# We investigated whether we could reverse the impairment in neuronal network activity and plasticity by targeting the overactivation of the mTOR pathway with WYE125132. […]
# [3] = system: layer V pyramidal neurons; assay: Excitation-inhibition correlation, whole-cell recordings from slices of treated adult mice; type: in vivo
# Procedure: as §1, §2
# Whole cell recordings were made from layer V pyramidal cells of the temporal cortex. Focal extracellular stimulation was applied and excitatory and inhibitory currents were measured across various stimulation intensities to assess E:I balance. […]
# recorded cell. […] We assessed this relation over multiple inputs onto the recorded postsynaptic neuron from different regions of the cortical brain slice, by systematically varying the intensity of extracellular stimulation, such that higher intensities evoke responses from larger subpopulations of presynaptic inputs (House et al., 2011). […]
# [4] = Caspr2-/- / Cntnap2 mutant mice treated with WYE125132 for 2 weeks
# [5] = WT littermates treated with WYE125132 for 2 weeks
smiles,measurement,setting,value
CNC(=O)Nc1ccc(-c2nc(N3CC4CCC(C3)O4)c3cnn(C4CCC5(CC4)OCCO5)c3n2)cc1 [WYE125132],spine formation (in words),"[1]; Caspr2+/-/Thy1-YFP/H mice, P12-P32, P<0.0058",increase in spine formation
same,spine elimination (in words),"[1]; Caspr2+/-/Thy1-YFP/H mice, P12-P32, versus vehicle, P<0.006",dramatic prevention of spine elimination
same,spine elimination (in words),"[1]; Caspr2-/-/Thy-1-YFP/H mice, P12-P32, versus vehicle, P<0.04",statistically significant prevention
same,rate of spine elimination,[1]; Cntnap2+/- mice gavaged daily P12 to P32 with WYE125132,8.5%±2.0%
same,rate of spine elimination,[1]; Cntnap2-/- mice gavaged daily P12 to P32 with WYE125132,9.5%±1.6%
same,spine elimination (in words),"[1]; both Cntnap2+/- and Cntnap2-/- mutant mice, P12 to P32",reduced back to levels seen in the WT littermates; also recorded: rescues excessive spine elimination
same,LTP induction (in words),[2]; [4],robust LTP; also recorded: successfully induced LTP
same,LTP induction (in words),[2]; [5],robust LTP
same,synaptic modification after spike pairing (example recording),"[2]; WYE125132-treated Cntnap2-/- mouse, single example whole-cell recording",35.1 % increase
same,synaptic modification after spike pairing (LTP summary),"[2]; WYE125132-treated Cntnap2-/- mutant mice, n=8, 6-15 min after pairing, error s.e.m.",45.4±16.4 % increase
same,correlation between excitation and inhibition (in words),[3]; [4],high correlation between excitation and inhibition
same,correlation between excitation and inhibition (in words),[3]; [5],high correlation between excitation and inhibition
same,linear correlation coefficient r between excitation and inhibition (representative recording),"[3]; WYE125132-treated Cntnap2-/- mouse, single representative recording",0.72
same,linear correlation coefficient r between excitation and inhibition (summary),"[3]; WYE125132-treated Cntnap2-/- mutant mice, 14 days gavage, n=12, error s.e.m.",0.43±0.08
